Laboratory results published in patent US7994179B2, “Carbamoyl compounds as DGAT1 inhibitors 190” (AstraZeneca AB, priority 2007, dated 2011).

target: T1, human DGAT1 expressed in insect cell membranes (Homo sapiens, UniProt O75907); experiment: Human Enzyme Assay: in vitro DGAT1 inhibition, 14C oleoyl coenzyme A incorporation into triolein; format: biochemical; conditions: not given
T1 construct: made in house; host or cells: sf9 insect cells (baculovirus), membrane fraction
T1 sequence (O75907 1-488): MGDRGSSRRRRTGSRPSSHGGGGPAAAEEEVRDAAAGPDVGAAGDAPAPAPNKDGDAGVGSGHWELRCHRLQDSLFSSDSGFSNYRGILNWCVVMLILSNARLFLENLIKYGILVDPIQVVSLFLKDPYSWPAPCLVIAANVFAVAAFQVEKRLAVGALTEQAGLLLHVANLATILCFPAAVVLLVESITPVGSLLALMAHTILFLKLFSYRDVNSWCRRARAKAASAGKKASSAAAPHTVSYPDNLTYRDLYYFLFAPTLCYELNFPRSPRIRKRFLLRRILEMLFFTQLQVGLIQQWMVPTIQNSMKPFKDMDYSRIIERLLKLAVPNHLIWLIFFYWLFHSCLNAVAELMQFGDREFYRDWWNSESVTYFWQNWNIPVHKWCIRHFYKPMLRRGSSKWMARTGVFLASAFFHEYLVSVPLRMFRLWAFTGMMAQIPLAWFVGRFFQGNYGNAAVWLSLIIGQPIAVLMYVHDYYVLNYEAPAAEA
Protocol: Briefly, sf9 cells were infected with recombinant baculovirus containing human DGAT1 coding sequences and harvested after 48 h. […] The membrane fraction at the interphase was collected, washed, and stored in liquid nitrogen.
The reaction was started by adding ^14C oleoyl coenzyme A (30 μM final concentration) and incubated at room temperature for 30 minutes. The reaction was stopped by adding 200 μl 2-propanol:heptane 7:1. Radioactive triolein product was separated into the organic phase by adding 300 μl heptane and 100 μl 0.1 M carbonate buffer pH 9.5. DGAT1 activity was quantified by counting aliquots of the upper heptane layer by liquid scintillography.
Stated figures are usually a mean of a number of measurements (usually 2 measurements) according to standard practice.

SMILES | IC50
Cc1nc(C)c(-c2ccc([C@H]3CC[C@H](CC(=O)O)CC3)cc2)nc1C(N)=O [Example 1, {trans-4-[4-(6-Carbamoyl-3,5-dimethylpyrazin-2-yl)phenyl]cyclohexyl}acetic acid] | 79 nM

same assay, conditions: acetone concentration not stated for these values; usually a mean of 2 measurements; read-out: IC50

SMILES | IC50
Cc1nc(C)c(-c2ccc([C@H]3CC[C@H](CC(=O)NS(C)(=O)=O)CC3)cc2)nc1C(N)=O [Example 2, 3,5-Dimethyl-6-[4-(trans-4-{2-[(methylsulfonyl)amino]-2-oxoethyl}cyclohexyl)-phenyl]pyrazine-2-carboxamide] | 71 nM
Cc1nc(C)c(-c2ccc([C@H]3CC[C@H](CC(=O)NC(C)(C)C(=O)O)CC3)cc2)nc1C(N)=O [Example 4, N-({trans-4-[4-(6-Carbamoyl-3,5-dimethylpyrazin-2-yl)phenyl]cyclohexyl}acetyl)-2-methylalanine] | 42 nM
Cc1nc(C)c(-c2ccc([C@H]3CC[C@H](CCO)CC3)cc2)nc1C(N)=O [Example 5, 6-{4-[trans-4-(2-Hydroxyethyl)cyclohexyl]phenyl}-3,5-dimethylpyrazine-2-carboxamide] | 18 nM
Cc1nc(C)c(-c2ccc(O[C@H]3CC[C@@H](C(=O)O)CC3)nc2)nc1C(N)=O [Example 6, cis-4-{[5-(6-Carbamoyl-3,5-dimethylpyrazin-2-yl)pyridin-2-yl]oxy}cyclohexanecarboxylic acid] | 5710 nM
Cc1nc(C)c(-c2ccc(O[C@H]3CC[C@@H](CC(=O)O)CC3)nc2)nc1C(N)=O [Example 7, (cis-4-{[5-(6-Carbamoyl-3,5-dimethylpyrazin-2-yl)pyridin-2-yl]oxy}cyclohexyl)acetic acid] | 5090 nM
CCc1nc(C)c(C(N)=O)nc1-c1ccc([C@H]2CC[C@H](CC(=O)O)CC2)cc1 [Example 9, {trans-4-[4-(6-Carbamoyl-3-ethyl-5-methylpyrazin-2-yl)phenyl]cyclohexyl}acetic acid] | 674 nM
Cc1ncc(C(N)=O)nc1-c1ccc([C@H]2CC[C@H](CC(=O)O)CC2)cc1 [Example 11, {trans-4-[4-(6-Carbamoyl-3-methylpyrazin-2-yl)phenyl]cyclohexyl}acetic acid] | 102 nM
NC(=O)c1cncc(-c2ccc([C@H]3CC[C@H](CC(=O)O)CC3)cc2)n1 [Example 13, {trans-4-[4-(6-Carbamoylpyrazin-2-yl)phenyl]cyclohexyl}acetic acid] | 428 nM
NC(=O)C[C@H]1CC[C@H](c2ccc(-c3cncc(C(N)=O)n3)cc2)CC1 [Example 14, 6-{4-[trans-4-(2-Amino-2-oxoethyl)cyclohexyl]phenyl}pyrazine-2-carboxamide] | 159 nM
NC(=O)c1cncc(-c2ccc([C@H]3CC[C@H](CCO)CC3)cc2)n1 [Example 15, 6-{4-[trans-4-(2-Hydroxyethyl)cyclohexyl]phenyl}pyrazine-2-carboxamide] | 157 nM
COC(=O)C(C)(C)NC(=O)C[C@H]1CC[C@H](c2ccc(-c3cncc(C(N)=O)n3)cc2)CC1 [Example 16, Methyl N-({trans-4-[4-(6-carbamoylpyrazin-2-yl)phenyl]cyclohexyl}acetyl)-2-methylalaninate] | 1230 nM
CC(C)(NC(=O)C[C@H]1CC[C@H](c2ccc(-c3cncc(C(N)=O)n3)cc2)CC1)C(=O)O [Example 17, N-({trans-4-[4-(6-Carbamoylpyrazin-2-yl)phenyl]cyclohexyl}acetyl)-2-methylalanine] | 418 nM
NC(=O)c1nc(-c2ccc([C@H]3CC[C@H](CC(=O)O)CC3)cc2)cnc1N [Example 18, 3-Carbamoyl-5-{4-[trans-4-(carboxymethyl)cyclohexyl]phenyl}pyrazin-2-aminium chloride] | 2850 nM
Cc1nc(C)c(-c2ccc(C34CCC(C(=O)O)(CC3)CC4)cc2)nc1C(N)=O [Example 21, 4-(4-(6-Carbamoyl-3,5-dimethylpyrazin-2-yl)phenyl)bicyclo[2.2.2]octane-1-carboxylic acid] | 270 nM
Cc1nc(C)c(-c2ccc(C34CC5CC(CC(C(=O)O)(C5)C3)C4)cc2)nc1C(N)=O [Example 23, 3-[4-(6-Carbamoyl-3,5-dimethylpyrazin-2-yl)phenyl]adamantane-1-carboxylic acid] | 96 nM

Continued, values first:

IC50 | SMILES
1000 nM | Cc1nc(C)c(-c2ccc(C34CC5CC(CC(CC(=O)O)(C5)C3)C4)cc2)nc1C(N)=O [Example 24, 2-[3-[4-(6-Carbamoyl-3,5-dimethylpyrazin-2-yl)phenyl]-1-adamantyl]acetic acid]
1500 nM | Cc1nc(C)c(-c2ccc(O[C@H]3CC[C@H](C(=O)O)CC3)c(Cl)c2)nc1C(N)=O [Example 26, (1r,4r)-4-(4-(6-Carbamoyl-3,5-dimethylpyrazin-2-yl)-2-chlorophenoxy)cyclohexanecarboxylic acid]
310 nM | Cc1nc(C)c(-c2ccc(O[C@H]3CC[C@@H](C(=O)O)CC3)c(Cl)c2)nc1C(N)=O [Example 27, (1s,4s)-4-(4-(6-Carbamoyl-3,5-dimethylpyrazin-2-yl)-2-chlorophenoxy)cyclohexanecarboxylic acid]
100 nM | Cc1nc(C)c(-c2ccc3c(c2)CC[C@]32CC[C@H](CC(=O)O)CC2)nc1C(N)=O [Example 29, 2-((1s,4r)-5′-(6-Carbamoyl-3,5-dimethylpyrazin-2-yl)-2′,3′-dihydrospiro[cyclohexane-1,1′-indene]-4-yl)acetic acid]
32 nM | Cc1nc(C)c(-c2ccc3c(c2)CC[C@]32CC[C@@H](CC(=O)O)CC2)nc1C(N)=O [Example 30, 2-((1r,4s)-5′-(6-Carbamoyl-3,5-dimethylpyrazin-2-yl)-2′,3′-dihydrospiro[cyclohexane-1,1′-indene]-4-yl)acetic acid]
1300 nM | Cc1nc(C)c(-c2ccc(N3CCC(CC(=O)O)CC3)cc2)nc1C(N)=O [Example 33, 2-(1-(4-(6-Carbamoyl-3,5-dimethylpyrazin-2-yl)phenyl)piperidin-4-yl)acetic acid]
3000 nM | Cc1nc(C)c(-c2ccc(N3CCC[C@H](C(=O)O)C3)cc2)nc1C(N)=O [Example 34]
960 nM | Cc1nc(C)c(-c2ccc(N3CCC[C@@H](C(=O)O)C3)cc2)nc1C(N)=O [Example 35]
2400 nM | Cc1nc(C)c(-c2ccc(N3CCC(C(=O)O)CC3)cc2)nc1C(N)=O [Example 38]
3000 nM | Cc1nc(C)c(-c2ccc(N3CCC(C(C)C(=O)O)CC3)cc2)nc1C(N)=O (centres unmarked) [Example 39]
1200 nM | Cc1nc(C)c(-c2ccc(N3CCC(CC(=O)O)C3)cc2)nc1C(N)=O (centres unmarked) [Example 40, 2-(1-(4-(6-Carbamoyl-3,5-dimethylpyrazin-2-yl)phenyl)pyrrolidin-3-yl)acetic acid]
950 nM | Cc1nc(C)c(-c2ccc(N3C[C@@H]4C(C(=O)O)[C@@H]4C3)cc2)nc1C(N)=O (stereo partly drawn) [Example 41, (1R,5S,6r)-3-(4-(6-Carbamoyl-3,5-dimethylpyrazin-2-yl)phenyl)-3-azabicyclo[3.1.0]hexane-6-carboxylic acid]
210 nM | Cc1nc(C)c(-c2ccc([C@H]3CC[C@H](C(C)(C)C(=O)O)CC3)cc2)nc1C(N)=O [Example 42, 2-((1r,4r)-4-(4-(6-Carbamoyl-3,5-dimethylpyrazin-2-yl)phenyl)cyclohexyl)-2-methylpropanoic acid]

same assay, conditions: assay acetone concentration of 1.8%; read-out: IC50

SMILES | IC50
Cc1nc(C)c(-c2ccc([C@H]3CC[C@H](CC(=O)O)CC3)cc2)nc1C(N)=O [Example 1, {trans-4-[4-(6-Carbamoyl-3,5-dimethylpyrazin-2-yl)phenyl]cyclohexyl}acetic acid] | 16 nM

same assay, conditions: compound at 10 μM

inhibition at 10 µM | SMILES
46 to 67% | Cc1nc(C)c(-c2ccc(N3CCN(CC(=O)O)CC3)cc2)nc1C(N)=O [Example 36]
47 to 50% | Cc1nc(C)c(-c2ccc(N3CCC[C@H](CC(=O)O)C3)cc2)nc1C(N)=O [Example 37]
